Results published in US11976068B2 (CHIMERIX, INC., priority 2015, dated 2024).
Where two headings read alike, the source gives them in different places.

Columns and labels:
human BCRP = biological target: T1, human BCRP (Homo sapiens, UniProt Q9UNQ0); experiment: BCRP inhibition, bidirectional permeability of prazosin in MDCKII-BCRP monolayers; conditions: prazosin probe; inhibitor 1 μM Ko134 (positive control)
T1 sequence (Q9UNQ0 1-655): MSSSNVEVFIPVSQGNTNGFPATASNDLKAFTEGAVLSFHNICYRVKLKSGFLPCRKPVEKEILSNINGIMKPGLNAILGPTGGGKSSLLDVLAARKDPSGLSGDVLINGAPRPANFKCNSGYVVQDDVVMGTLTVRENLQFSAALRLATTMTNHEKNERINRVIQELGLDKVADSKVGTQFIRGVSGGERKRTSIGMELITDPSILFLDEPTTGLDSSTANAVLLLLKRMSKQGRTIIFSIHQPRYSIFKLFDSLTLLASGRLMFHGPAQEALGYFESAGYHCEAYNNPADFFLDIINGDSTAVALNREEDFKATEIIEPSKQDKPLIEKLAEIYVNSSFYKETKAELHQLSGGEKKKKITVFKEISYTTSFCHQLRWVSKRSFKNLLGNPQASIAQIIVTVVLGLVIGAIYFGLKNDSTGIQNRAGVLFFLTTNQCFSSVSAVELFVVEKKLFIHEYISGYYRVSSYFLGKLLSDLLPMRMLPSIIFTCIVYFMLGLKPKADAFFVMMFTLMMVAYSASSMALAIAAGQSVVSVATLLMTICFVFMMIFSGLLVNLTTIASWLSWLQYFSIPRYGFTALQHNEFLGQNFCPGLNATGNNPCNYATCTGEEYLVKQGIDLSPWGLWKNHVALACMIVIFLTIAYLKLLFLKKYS

human cancer cells = experiment: Viability of human cancer cells at 72 hours post-treatment; assay type: cell-based; conditions: change in potency relative to ONC201; viability at 72 hours post-treatment
Experimental: A number of exemplary analogs of compound (1) were prepared based on the syntheses described here. For each of these compounds, the viability of human cancer cells at 72 hours post-treatment with the compound was measured.

[1] = test system: human colon cancer xenograft; experiment: Human colon cancer xenograft-bearing mice; assay type: in vivo; conditions: single dose, oral or intraperitoneal, compared to vehicle-treated control cohorts
human MDR1 = human MDR1 (Homo sapiens, UniProt P08183); conditions: digoxin probe; inhibitor 10 μM Valspodar (positive control)
human MDR1, sequence (P08183 whole entry): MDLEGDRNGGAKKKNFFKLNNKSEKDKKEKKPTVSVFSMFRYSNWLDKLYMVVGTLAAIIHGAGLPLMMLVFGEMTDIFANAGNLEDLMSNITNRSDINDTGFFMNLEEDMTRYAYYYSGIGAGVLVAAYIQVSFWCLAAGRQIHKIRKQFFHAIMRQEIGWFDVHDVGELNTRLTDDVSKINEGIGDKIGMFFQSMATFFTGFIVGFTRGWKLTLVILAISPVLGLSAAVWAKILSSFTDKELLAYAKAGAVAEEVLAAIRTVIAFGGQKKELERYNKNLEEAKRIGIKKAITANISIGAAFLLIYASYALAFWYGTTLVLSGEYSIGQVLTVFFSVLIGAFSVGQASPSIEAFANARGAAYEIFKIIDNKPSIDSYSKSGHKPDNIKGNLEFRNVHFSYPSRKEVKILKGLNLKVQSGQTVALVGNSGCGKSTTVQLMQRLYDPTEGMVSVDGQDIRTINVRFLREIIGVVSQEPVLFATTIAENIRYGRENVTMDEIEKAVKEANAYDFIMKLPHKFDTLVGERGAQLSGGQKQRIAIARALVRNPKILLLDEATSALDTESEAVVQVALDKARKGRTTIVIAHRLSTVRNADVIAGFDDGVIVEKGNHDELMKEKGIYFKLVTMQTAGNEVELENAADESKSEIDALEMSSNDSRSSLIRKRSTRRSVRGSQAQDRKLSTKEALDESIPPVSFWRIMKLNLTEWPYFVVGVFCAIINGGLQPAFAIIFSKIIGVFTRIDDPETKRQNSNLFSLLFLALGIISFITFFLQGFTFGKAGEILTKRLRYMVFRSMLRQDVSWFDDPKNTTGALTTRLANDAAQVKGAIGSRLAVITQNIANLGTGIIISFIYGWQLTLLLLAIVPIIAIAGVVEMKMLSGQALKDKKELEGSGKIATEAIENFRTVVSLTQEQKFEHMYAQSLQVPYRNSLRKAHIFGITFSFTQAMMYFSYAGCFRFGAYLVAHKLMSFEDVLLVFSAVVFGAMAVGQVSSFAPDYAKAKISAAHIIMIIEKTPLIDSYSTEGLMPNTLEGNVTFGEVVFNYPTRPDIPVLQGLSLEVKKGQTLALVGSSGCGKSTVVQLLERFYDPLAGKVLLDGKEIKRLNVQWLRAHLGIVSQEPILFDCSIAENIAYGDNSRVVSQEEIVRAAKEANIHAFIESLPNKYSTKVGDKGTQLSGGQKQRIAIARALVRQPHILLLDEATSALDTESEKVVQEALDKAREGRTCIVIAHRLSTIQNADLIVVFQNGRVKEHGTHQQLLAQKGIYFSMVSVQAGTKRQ

CYP 1A2 = experiment: CYP mRNA induction in cryopreserved human hepatocytes
CYP 2B6 = experiment: as above
CYP 3A4 = experiment: as above
[2] = donor CDP, NC: flumazenil (25 μM)
[3] = donor two, NC: flumazenil (25 μM)

For `CC(C)C[C@H]1c2[nH]c3ccccc3c2C[C@H]2C(=O)N[C@@H](CCC(=O)OC(C)(C)C)C(=O)N21` [Ko134, reference compound], the “% Inhibition (Efflux Ratio)” value (human BCRP) was 98.7%.
`O=C1C2=C(CCN(Cc3ccccc3)C2)N2CCN=C2N1Cc1cc(F)cc(F)c1` [ONC210] was tested, and the “Relative Potency” value (human cancer cells) was “A (A Indicates a potency increase of >2-fold of ONC201)”.
For `O=C1C2=C(CCN(Cc3ccccc3)C2)N2CCN=C2N1Cc1ccc(Cl)c(Cl)c1` [ONC211], the “Relative Potency” value (human cancer cells) was “A (A Indicates a potency increase of >2-fold of ONC201)”.
For `O=C1C2=C(CCN(Cc3ccccc3)C2)N2CCN=C2N1Cc1ccc(C(F)(F)F)cc1` [ONC212], the tumor volume [1] was “significant reduction of tumor volume”.
`O=C1C2=C(CCN(Cc3ccccc3)C2)N2CCN=C2N1Cc1ccccc1F` [ONC217] was tested, and the “Relative Potency” value (human cancer cells) was “B (B Indicates potency that is within 2-fold of ONC201)”.
With `O=C1C2=C(CCN(Cc3ccccc3)C2)N2CCN=C2N1CC1CCON1` (stereo not drawn) [ONC222] the “Relative Potency” value (human cancer cells) was “B (B Indicates potency that is within 2-fold of ONC201)”.
For `C/C=C/C[C@@H](C)C(=O)[C@H]1C(=O)N[C@@H](C(C)C)C(=O)N(C)CC(=O)N(C)[C@@H](CC(C)C)C(=O)N[C@@H](C(C)C)C(=O)N(C)[C@@H](CC(C)C)C(=O)N[C@@H](C)C(=O)N[C@H](C)C(=O)N(C)[C@@H](CC(C)C)C(=O)N(C)[C@@H](CC(C)C)C(=O)N(C)[C@@H](C(C)C)C(=O)N1C` [Valspodar, reference compound], the “% Inhibition (Efflux Ratio)” value (human MDR1) was 96.8%.
For `CCOC(=O)c1ncn2c1CN(C)C(=O)c1cc(F)ccc1-2` [flumazenil], the “mRNA Induction Fold” value (CYP 1A2; [2]) was 1.16 fold, the “mRNA Induction Fold” value (CYP 1A2; donor one, NC: flumazenil (25 μM)) was 1.31 fold and the “mRNA Induction Fold” value (CYP 1A2; [3]) was 1.34 fold. For the same compound, the “mRNA Induction Fold” value (CYP 2B6; [2]) was 1.16 fold, the “mRNA Induction Fold” value (CYP 2B6; [3]) was 1.27 fold and the “mRNA Induction Fold” value (CYP 3A4) was 1.37 fold. For the same compound, the “mRNA Induction Fold” value (CYP 3A4; CYP 3A4, donor CDP, NC: flumazenil (25 μM)) was 1.03 fold and the “mRNA Induction Fold” value (CYP 3A4; CYP 3A4, donor two, NC: flumazenil (25 μM)) was 0.93 fold.
In the case of `COc1ccc2[nH]c([S+]([O-])Cc3ncc(C)c(OC)c3C)nc2c1` (stereo not drawn) [omeprazole], the “mRNA Induction Fold” value (CYP 1A2; donor CDP, PC: omeprazole (50 μM)) is reported as 28.71 fold, the “mRNA Induction Fold” value (CYP 1A2; donor one, PC: omeprazole (50 μM)) is reported as 35.53 fold and the “mRNA Induction Fold” value (CYP 1A2; donor two, PC: omeprazole (50 μM)) is reported as 31.06 fold.
With `CCC1(c2ccccc2)C(=O)NC(=O)NC1=O` [phenobarbital] the “mRNA Induction Fold” value (CYP 2B6; donor CDP, PC: phenobarbital (750 μM)) was 8.56 fold, the “mRNA Induction Fold” value (CYP 2B6; donor one, PC: phenobarbital (750 μM)) was 14.38 fold and the “mRNA Induction Fold” value (CYP 2B6; donor two, PC: phenobarbital (750 μM)) was 8.98 fold.
